{"source": "paper PMC12000319", "about": "“Proton conductance by human uncoupling protein 1 is inhibited by purine and pyrimidine nucleotides” (The EMBO Journal, 2025)", "key": {"human DIC (SLC25A10)": {"target": "T1, human DIC (SLC25A10) (Homo sapiens, UniProt Q9UBX3)", "T1 construct": "His8 (N, cleaved yes); Factor Xa protease cleavage site (N, cleaved yes); made in house; host or cells: Saccharomyces cerevisiae protease-deficient strain BJ2186", "T1 sequence (Q9UBX3 1-287)": "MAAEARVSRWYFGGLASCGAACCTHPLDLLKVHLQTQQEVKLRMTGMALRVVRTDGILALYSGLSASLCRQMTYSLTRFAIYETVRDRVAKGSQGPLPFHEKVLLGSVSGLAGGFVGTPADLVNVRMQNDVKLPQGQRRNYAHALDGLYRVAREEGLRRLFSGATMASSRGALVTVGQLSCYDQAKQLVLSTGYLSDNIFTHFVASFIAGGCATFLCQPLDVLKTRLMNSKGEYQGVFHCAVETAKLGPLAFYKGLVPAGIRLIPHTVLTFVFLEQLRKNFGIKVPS", "test": "Differential scanning fluorimetry (nanoDSF) thermal stability shift assay", "format": "binding", "details": "1 mM nucleotide, pH 6.0, single repeats (source data Fig. 4A)", "text": "(§1) UCP1 is phylogenetically related to mitochondrial dicarboxylate carriers, gaining thermogenic properties as a later evolutionary development (Hughes et al, [2009]; Robinson et al, [2008]). The mitochondrial dicarboxylate carrier (DIC, SLC25A10) and oxoglutarate carrier (OGC, SLC25A11) are most closely related to UCP1 (Gaudry et al, [2019]; Hughes et al, [2009]) and share many residues involved in nucleotide binding in UCP1, such as the arginine triplet at the contact points, R92 and Q85 (Jones et al, [2024]). Given the similarity of the central cavity of UCP1, OGC and DIC, we tested whether the dicarboxylate carriers have the ability to bind nucleotides. For this purpose, we purified human DIC and OGC, and tested whether nucleotides were able to generate a thermostability shift, as observed for their physiological substrates (Pyrihová et al, [2024]). However, all tested nucleotides caused a negligible shift with both DIC or OGC at all pH values tested between 6.0 and 8.0 (Fig. 4A; Appendix Fig. S5). Thus, despite having many residues in common (Fig. 4B–D), UCP1 has evolved to have a few specific residues that allow high-affinity binding of nucleotides without a strong selection for nucleobase.\n(§2) Differential scanning fluorimetry (nanoDSF) (Alexandrov et al, [2008]) was carried out with 2 µg UCP1, DIC or OGC protein (100 mM MES/HEPES, pH range 6.0–8.0, 25 mM NaCl, 1 mM TCEP, 0.01% lauryl maltose neopentyl glycol and 0.01 mg/mL tetraoleoyl cardiolipin) and, when required, 1 mM nucleotide, as indicated. The proteins have the following number of tryptophans: UCP1 (two); OGC (two); DIC (one). The samples were loaded into nanoDSF-grade standard glass capillaries. The temperature was increased by […] every minute from 25 to 95 °C, the intrinsic fluorescence was measured in a Prometheus NT.48 nanoDSF device, and the apparent Tm was calculated with the PR.ThermControl software (NanoTemper Technologies)."}, "human OGC (SLC25A11)": {"target": "T2, human OGC (SLC25A11) (Homo sapiens, UniProt Q02978)", "T2 construct": "His8 (N, cleaved yes); Factor Xa protease cleavage site (N, cleaved yes); made in house; host or cells: Saccharomyces cerevisiae strain W303.1B", "T2 sequence (Q02978 1-314)": "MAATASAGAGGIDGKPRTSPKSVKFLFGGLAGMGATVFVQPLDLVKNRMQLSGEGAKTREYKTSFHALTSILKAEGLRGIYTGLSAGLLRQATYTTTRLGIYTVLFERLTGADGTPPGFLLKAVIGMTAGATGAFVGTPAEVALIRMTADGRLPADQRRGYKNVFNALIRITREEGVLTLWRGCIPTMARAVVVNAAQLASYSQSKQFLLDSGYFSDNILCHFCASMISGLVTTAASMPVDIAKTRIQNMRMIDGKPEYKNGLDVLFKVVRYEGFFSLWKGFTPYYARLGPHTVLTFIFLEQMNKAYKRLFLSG", "test": "Differential scanning fluorimetry (nanoDSF) thermal stability shift assay", "format": "binding", "details": "1 mM nucleotide, pH 6.0, single repeats (source data Fig. 4A)", "text": "as §1, §2"}, "UCP1 [1]": {"target": "T3, UCP1 (Homo sapiens, UniProt P25874)", "T3 construct": "His8 (N, cleaved yes); Factor Xa protease cleavage site (N, cleaved yes); made in house; host or cells: Saccharomyces cerevisiae strain W303.1B", "T3 sequence (P25874 1-307)": "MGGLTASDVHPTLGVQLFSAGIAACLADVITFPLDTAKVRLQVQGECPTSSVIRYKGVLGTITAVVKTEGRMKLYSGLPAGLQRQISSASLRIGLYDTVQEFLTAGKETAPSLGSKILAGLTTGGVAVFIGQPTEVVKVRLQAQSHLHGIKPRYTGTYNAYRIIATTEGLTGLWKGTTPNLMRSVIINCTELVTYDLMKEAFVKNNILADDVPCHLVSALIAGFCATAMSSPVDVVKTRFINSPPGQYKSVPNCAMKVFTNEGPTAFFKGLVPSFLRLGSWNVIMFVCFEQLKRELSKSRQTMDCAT", "test": "Isothermal titration calorimetry of nucleotide binding", "design": "isotherm data point (enthalpy change per injection): unit not given here", "details": "for isotherm data point (enthalpy change per injection): representative isotherm"}, "UCP1 [2]": {"target": "T3, UCP1", "test": "Liposome reconstitution and proton conductance assay (pyranine fluorescence)", "format": "biochemical", "details": "UCP1 proteoliposomes, 200 µM oleic acid alone, 2.5 µM valinomycin; single reconstitutions"}, "[3]": {"target": "T4, human uncoupling protein 1 (human, UniProt P25874)", "T4 construct": "human uncoupling protein 1 (UCP1, SLC25A7), Uniprot P25874; Detergent-solubilised, with tetraoleoyl cardiolipin; also called UCP1; SLC25A7; source: Saccharomyces cerevisiae W303.1B, purified from mitochondria (Ni Sepharose, on-column Factor Xa cleavage); not shown: His8, N-terminal, cleaved", "test": "cryo-EM structure; UCP1, PMb65 and PMb71 mixed stoichiometrically, overnight at 4 °C; complex separated by SEC (20 mM MES pH 6.0, 150 mM NaCl, 0.02% lauryl maltose neopentyl glycol, 0.02 mg/mL tetraoleoyl cardiolipin, 1 mM TCEP); 2 mM UTP and 2 mM D-maltose added; 3.03 Å", "details": "both partners purified"}}, "note": "Several values for one entry are separate records, joined by “and”; a condition that tells them apart may be missing. Equal entries are not always repeated.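 For Kd in this document: purified human UCP1 in cacodylate buffer with lauryl maltose neopentyl glycol and cardiolipin, titrated with nucleotides, isotherms fitted by one-site model yielding ΔH, Kd and stoichiometry.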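 For binding affinity to UCP1 (in words) in this document: purified human UCP1 in cacodylate buffer with lauryl maltose neopentyl glycol and cardiolipin, titrated with nucleotides, isotherms fitted by one-site model yielding ΔH, Kd and stoichiometry.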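 For isotherm data point (enthalpy change per injection) in this document: purified human UCP1 in cacodylate buffer with lauryl maltose neopentyl glycol and cardiolipin, titrated with nucleotides, isotherms fitted by one-site model yielding ΔH, Kd and stoichiometry.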"}
{"molecule": "Nc1ncnc2c1ncn2[C@@H]1O[C@H](COP(=O)(O)OP(=O)(O)OP(=O)(O)O)[C@@H](O)[C@H]1O", "note": "[ATP, adenosine triphosphate]", "values": [{"measurement": "change in apparent melting temperature (ΔTm) of hDIC", "setting": "human DIC (SLC25A10)", "result": "1.0 and 0.5 and 0.8"}, {"measurement": "change in apparent melting temperature (ΔTm) of hOGC", "setting": "human OGC (SLC25A11)", "result": "0.7 and 0.4"}, {"measurement": "binding affinity to UCP1 (in words)", "setting": "UCP1 [1]; ITC", "result": "highest binding affinities"}, {"measurement": "Kd", "setting": "UCP1 [1]; ITC, pH 6.0, 20 °C, mean ± standard deviation of three biological repeats (Fig. 2A-E)", "result": "880 ± 120", "unit": "nM"}, {"measurement": "Kd", "setting": "UCP1 [1]; ITC, single biological repeats (source data Fig. 2F)", "result": "810 nM and 800 nM and 1020 nM"}, {"measurement": "isotherm data point (enthalpy change per injection)", "setting": "UCP1 [1]; Molar ratio (Nucleotide/UCP) 0.120417, pH 6.0, 20 °C", "result": -35.3409}, {"measurement": "isotherm data point (enthalpy change per injection)", "setting": "UCP1 [1]; Molar ratio (Nucleotide/UCP) 0.428528, pH 6.0, 20 °C", "result": -34.4517}, {"measurement": "isotherm data point (enthalpy change per injection)", "setting": "UCP1 [1]; Molar ratio (Nucleotide/UCP) 0.491383, pH 6.0, 20 °C", "result": -33.5364}, {"measurement": "isotherm data point (enthalpy change per injection)", "setting": "UCP1 [1]; Molar ratio (Nucleotide/UCP) 0.554656, pH 6.0, 20 °C", "result": -34.076}, {"measurement": "isotherm data point (enthalpy change per injection)", "setting": "UCP1 [1]; Molar ratio (Nucleotide/UCP) 0.618348, pH 6.0, 20 °C", "result": -33.0757}, {"measurement": "isotherm data point (enthalpy change per injection)", "setting": "UCP1 [1]; Molar ratio (Nucleotide/UCP) 0.682464, pH 6.0, 20 °C", "result": -31.8617}, {"measurement": "isotherm data point (enthalpy change per injection)", "setting": "UCP1 [1]; Molar ratio (Nucleotide/UCP) 0.811976, pH 6.0, 20 °C", "result": -26.1456}, {"measurement": "isotherm data point (enthalpy change per injection)", "setting": "UCP1 [1]; Molar ratio (Nucleotide/UCP) 0.877378, pH 6.0, 20 °C", "result": -22.2535}, {"measurement": "isotherm data point (enthalpy change per injection)", "setting": "UCP1 [1]; Molar ratio (Nucleotide/UCP) 0.943214, pH 6.0, 20 °C", "result": -16.8687}, {"measurement": "isotherm data point (enthalpy change per injection)", "setting": "UCP1 [1]; Molar ratio (Nucleotide/UCP) 1.0762, pH 6.0, 20 °C", "result": -7.301}, {"measurement": "isotherm data point (enthalpy change per injection)", "setting": "UCP1 [1]; Molar ratio (Nucleotide/UCP) 1.14336, pH 6.0, 20 °C", "result": -4.354}, {"measurement": "isotherm data point (enthalpy change per injection)", "setting": "UCP1 [1]; Molar ratio (Nucleotide/UCP) 1.21096, pH 6.0, 20 °C", "result": -2.46}, {"measurement": "isotherm data point (enthalpy change per injection)", "setting": "UCP1 [1]; Molar ratio (Nucleotide/UCP) 1.41647, pH 6.0, 20 °C", "result": -1.066}, {"measurement": "isotherm data point (enthalpy change per injection)", "setting": "UCP1 [1]; Molar ratio (Nucleotide/UCP) 1.69692, pH 6.0, 20 °C", "result": -0.2462}, {"measurement": "isotherm data point (enthalpy change per injection)", "setting": "UCP1 [1]; Molar ratio (Nucleotide/UCP) 1.76819, pH 6.0, 20 °C", "result": 0.1511}, {"measurement": "isotherm data point (enthalpy change per injection)", "setting": "UCP1 [1]; Molar ratio (Nucleotide/UCP) 1.91217, pH 6.0, 20 °C", "result": -0.4754}, {"measurement": "isotherm data point (enthalpy change per injection)", "setting": "UCP1 [1]; Molar ratio (Nucleotide/UCP) 1.98488, pH 6.0, 20 °C", "result": 0.1711}]}
{"molecule": "CCCCCCCC/C=C\\CCCCCCCC(=O)O", "note": "[OA, oleic acid]", "values": [{"measurement": "Proton influx rate", "setting": "UCP1 [2]", "result": "908.51 nmol H+/min and 699.43 nmol H+/min and 609.97 nmol H+/min"}]}
{"molecule": "Pro-macrobody PMb71 (VHH, llama nanobody CA9871; Expressed from the vector pBXNPHM3 (Addgene 110099); also called CA9871; source: E. coli MC1061, purified (Ni-NTA, 3C cleavage, Strep-Tactin XT); not shown: His-tagged MBP, N-terminal, cleaved) VHH: QVQLVESGGGLVQAGDSLRLSCAASGLTLKNYAMGWFRQAPGKEHEFVAVISWSGSGTSYADSVEGRFTISRDNAKNTAFLQMSSLKPEDTAVYYCAARDGGYGSRWPDEYTYWGQGTQVTVPP", "values": [{"measurement": "binding result", "setting": "[3]", "result": "binds"}]}
